Two compounds from patent US20230301981A1, “TLR7/8 ANTAGONISTS AND USES THEREOF” (Merck Patent GmbH, priority 2020, published 2023) can be followed below.

The target of assay [1] is T1, TLR7 (Homo sapiens, UniProt Q9NYK1).
T1 sequence (Q9NYK1 27-1049): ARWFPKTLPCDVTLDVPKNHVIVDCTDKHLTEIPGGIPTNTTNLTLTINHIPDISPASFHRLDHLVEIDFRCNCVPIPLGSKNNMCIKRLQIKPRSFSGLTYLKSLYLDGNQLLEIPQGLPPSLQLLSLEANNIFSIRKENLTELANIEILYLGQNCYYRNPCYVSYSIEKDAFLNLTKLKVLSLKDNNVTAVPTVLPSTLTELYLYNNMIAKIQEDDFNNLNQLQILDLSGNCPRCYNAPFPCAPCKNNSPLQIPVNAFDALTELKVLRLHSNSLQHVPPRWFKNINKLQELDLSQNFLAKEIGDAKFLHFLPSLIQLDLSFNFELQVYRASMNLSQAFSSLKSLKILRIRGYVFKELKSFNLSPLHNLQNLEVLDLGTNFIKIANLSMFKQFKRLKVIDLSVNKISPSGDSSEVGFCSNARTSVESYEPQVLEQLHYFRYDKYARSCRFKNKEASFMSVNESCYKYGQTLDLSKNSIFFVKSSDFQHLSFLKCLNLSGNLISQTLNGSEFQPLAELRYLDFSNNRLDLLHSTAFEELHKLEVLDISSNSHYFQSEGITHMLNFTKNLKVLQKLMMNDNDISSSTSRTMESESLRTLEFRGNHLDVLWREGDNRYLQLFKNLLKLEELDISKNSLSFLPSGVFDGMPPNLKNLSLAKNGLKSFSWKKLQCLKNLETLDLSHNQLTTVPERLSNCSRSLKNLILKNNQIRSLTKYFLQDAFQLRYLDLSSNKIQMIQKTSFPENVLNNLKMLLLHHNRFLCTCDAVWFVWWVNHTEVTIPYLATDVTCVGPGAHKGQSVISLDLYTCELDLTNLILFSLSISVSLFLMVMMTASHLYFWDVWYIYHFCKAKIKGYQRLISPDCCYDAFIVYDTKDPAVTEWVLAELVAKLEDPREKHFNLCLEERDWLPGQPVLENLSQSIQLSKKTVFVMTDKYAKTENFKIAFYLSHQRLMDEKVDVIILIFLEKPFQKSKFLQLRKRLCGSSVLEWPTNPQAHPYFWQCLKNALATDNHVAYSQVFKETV
The assay can be described thus: Human whole blood assay, TLR7-specific agonist stimulation, IL-6 by AlphaLISA. Type of assay: cell-based. Set-up: Human whole blood from healthy donors was drawn into EDTA Vacutainer tubes; endogenous in cells; host or cells: human whole blood (healthy donors). The settings on record: TLR7-specific agonist 3 µM, IL-6 readout, read-out: IC50 TLR7 (IL6 READOUT) HUMAN WHOLE BLOOD (N=2). The method, then:
(§1) Human whole blood from healthy donors was drawn into EDTA Vacutainer tubes and the experiment started within 2 hr of draw. Four parts blood was diluted with 1 part PBS. 10 mM compounds stock solutions were serially diluted 1:3 eleven times in DMSO. Each serial dilution was further diluted by transferring 3 µl to 100 µl RPMI. For the stimulation only and no stimulation controls, 3 µl 100% DMSO was transferred to 100 µl RPMI. Then, 5 µl of each of these dilutions were transferred to 96-well tissue culture grade U-bottom plate in triplicate for each ligand and each donor. Final inhibitor concentrations were 10, 3.3, 1.1, 0.37, 0.12, 0.04, 0.014, 0.0046, 0.0015, 0.00051, 0.00017, 0.00006 µM. No inhibitor (stimulation only) controls were included in triplicate for each donor. Diluted blood was dispensed on top of inhibitor dilutions at 150 µl/well. Plates were incubated at 37° C. 5% CO2 for 30 min. For TLR7 stimulation, 10 mM stock of a TLR7-specific small molecule agonist in DMSO was diluted to 90 µM in RPMI and 5 µl were added to each inhibitor dilution for each donor. Final concentration was 3 µM. For TLR8 stimulation, 10 mM stock of a TLR8-specific small molecule agonist in DMSO was diluted to 15 µM in RPMI and 5 µl were added to each inhibitor dilution for each donor. Final concentration was 0.5 µM. No stimulation controls were included in triplicate for each donor. Plates were incubated at 37° C. 5% CO2 overnight. Next day, plasma was collected and IL-6 was measured by AlphaLISA (PerkinElmer AL223 according to manufacturer’s protocol.

The target of assay [2] is T2, TLR8 (Homo sapiens, UniProt Q9NR97).
T2 construct: Human whole blood from healthy donors was drawn into EDTA Vacutainer tubes; endogenous in cells; host or cells: human whole blood (healthy donors)
T2 sequence (Q9NR97 27-1041): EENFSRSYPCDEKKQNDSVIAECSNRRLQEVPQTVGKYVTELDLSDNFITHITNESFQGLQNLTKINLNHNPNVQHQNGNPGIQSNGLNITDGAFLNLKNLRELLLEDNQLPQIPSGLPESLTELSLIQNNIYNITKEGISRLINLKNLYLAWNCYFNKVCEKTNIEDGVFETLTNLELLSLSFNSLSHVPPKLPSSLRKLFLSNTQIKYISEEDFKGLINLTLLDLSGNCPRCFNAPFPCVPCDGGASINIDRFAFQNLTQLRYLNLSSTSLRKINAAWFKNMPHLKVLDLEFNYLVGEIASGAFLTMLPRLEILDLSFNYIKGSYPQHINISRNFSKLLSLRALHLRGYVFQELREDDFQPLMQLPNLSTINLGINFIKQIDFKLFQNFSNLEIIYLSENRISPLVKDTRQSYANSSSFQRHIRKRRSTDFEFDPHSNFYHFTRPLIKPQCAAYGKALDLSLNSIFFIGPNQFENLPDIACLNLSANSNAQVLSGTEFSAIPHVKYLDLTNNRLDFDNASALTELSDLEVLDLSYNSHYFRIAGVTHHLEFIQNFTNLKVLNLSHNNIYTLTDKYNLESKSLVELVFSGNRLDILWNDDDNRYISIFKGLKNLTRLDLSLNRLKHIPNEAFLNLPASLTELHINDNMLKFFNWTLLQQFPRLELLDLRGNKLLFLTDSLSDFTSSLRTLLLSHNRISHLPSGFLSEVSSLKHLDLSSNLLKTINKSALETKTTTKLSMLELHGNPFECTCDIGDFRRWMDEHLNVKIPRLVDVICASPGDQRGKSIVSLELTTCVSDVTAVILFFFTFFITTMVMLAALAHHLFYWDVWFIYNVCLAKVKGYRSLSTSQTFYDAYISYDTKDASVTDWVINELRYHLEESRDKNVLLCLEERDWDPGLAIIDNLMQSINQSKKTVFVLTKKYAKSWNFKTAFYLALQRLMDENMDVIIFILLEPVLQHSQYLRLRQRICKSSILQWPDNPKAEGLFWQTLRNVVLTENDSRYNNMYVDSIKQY
In words: Human whole blood assay, TLR8-specific agonist stimulation, IL-6 by AlphaLISA. In kind it is cell-based. The settings on record: TLR8-specific agonist 0.5 µM, IL-6 readout, read-out: IC50 TLR8 (IL6 READOUT) HUMAN WHOLE BLOOD (N=2). The procedure:
as §1
(Alpha assays give light when donor and acceptor beads are brought close together.)

Each structure is given as a SMILES string.

As usually defined, the IC50 is the concentration that gives 50% inhibition.

Consider `COc1ccc2nc3cc(Cl)ccc3c(Nc3cc(CN4CCCC4)c(O)c(CN4CCCC4)c3)c2n1` [Compound 1, Pyronaridine], for which the IC50 in assay [1] came out at 210 nM; in assay [2], 610 nM.
In the case of `CCN(CCO)CCCC(C)Nc1ccnc2cc(Cl)ccc12` (stereo not shown) [HYDROXY-CHLOROQUINE HCQ, hydroxychloroquine], the IC50 in assay [1] came to 960 nM; in assay [2], 1240 nM.
